Activity calls are given as the source filed them. No cut-off for these calls is given here.
Assays:
[1] = molecular target: T1, Epidermal growth factor receptor (Homo sapiens, UniProt P00533); experiment: Inhibition of wild type EGFR domain (unknown origin) expressed in baculovirus expression system using Poly(Glu:Tyr)4:1 substrate after 60 mins by ELISA
[2] = molecular target: Epidermal growth factor receptor (Homo sapiens, UniProt P00533, L858R/T790M); experiment: Inhibition of EGFR T790M/L858R double mutant (unknown origin) expressed in baculovirus expression system using Poly(Glu:Tyr)4:1 substrate after 60 mins by ELISA
A-431 = experiment: Antiproliferative activity against human A431 cells assessed as growth inhibition after 72 hrs by SRB assay; assay type: functional, cell-based; settings: A-431, 72 h
NCI-H1975 = experiment: Antiproliferative activity against gefitinib-resistant human NCI-H1975 cells assessed as growth inhibition after 72 hrs by SRB assay; assay type: functional, cell-based; settings: NCI-H1975, 72 h
[3] = molecular target: T1, Epidermal growth factor receptor; experiment: Inhibition of EGF-induced EGFR autophosphorylation in human A431 cells pretreated for 2 hrs followed by EGF challenge by Western blotting analysis; assay type: cell-based; settings: A-431
[4] = molecular target: T1, Epidermal growth factor receptor; experiment: Inhibition of EGF-induced EGFR autophosphorylation in human A431 cells at 0.1 umol/L pretreated for 2 hrs followed by EGF challenge by Western blotting analysis; assay type: cell-based; settings: A-431
[5] = molecular target: T1, Epidermal growth factor receptor; experiment: Inhibition of EGFR in human A431 cells assessed as inhibition of EGF-induced ERK1/2 phosphorylation at 0.1 to 1 umol/L pretreated for 2 hrs followed by EGF challenge by Western blotting analysis; assay type: cell-based; settings: A-431
[6] = molecular target: T1, Epidermal growth factor receptor; experiment: Inhibition of EGFR in human A431 cells assessed as inhibition of EGF-induced AKT phosphorylation at 0.1 to 1 umol/L pretreated for 2 hrs followed by EGF challenge by Western blotting analysis; assay type: cell-based; settings: A-431
[7] = system: Epidermal growth factor receptor (Homo sapiens), P00533 [L858R,T790M]; experiment: Inhibition of EGF-induced EGFR T790M/L858R double mutant phosphorylation in human NCI-H1975 cells pretreated for 2 hrs followed by EGF challenge by Western blotting analysis; assay type: cell-based
[8] = system: Epidermal growth factor receptor (Homo sapiens), P00533 [L858R,T790M]; experiment: Inhibition of EGFR T790M/L858R double mutant in human NCI-H1975 cells assessed as inhibition of EGF-induced ERK1/2 phosphorylation pretreated for 2 hrs followed by EGF challenge by Western blotting analysis; assay type: cell-based
[9] = system: Epidermal growth factor receptor (Homo sapiens), P00533 [L858R,T790M]; experiment: Inhibition of EGFR T790M/L858R double mutant in human NCI-H1975 cells assessed as inhibition of EGF-induced AKT phosphorylation pretreated for 2 hrs followed by EGF challenge by Western blotting analysis; assay type: cell-based
[10] = system: Epidermal growth factor receptor (Homo sapiens), P00533 [L858R,T790M]; experiment: Inhibition of EGF-induced EGFR T790M/L858R double mutant phosphorylation in human NCI-H1975 cells at 0.1 umol/L pretreated for 2 hrs followed by EGF challenge by Western blotting analysis; assay type: cell-based
[11] = molecular target: Receptor tyrosine-protein kinase erbB-2 (Homo sapiens, UniProt P04626); experiment: Inhibition of ErbB2 (unknown origin) expressed in baculovirus expression system using Poly(Glu:Tyr)4:1 after 60 mins by ELISA
[12] = molecular target: Receptor tyrosine-protein kinase erbB-4 (Homo sapiens, UniProt Q15303); experiment: Inhibition of recombinant ErbB4 (unknown origin) using Poly(Glu:Tyr)4:1 after 60 mins by ELISA
[13] = molecular target: Proto-oncogene tyrosine-protein kinase receptor Ret (Homo sapiens, UniProt P07949); experiment: Inhibition of recombinant RET (unknown origin) using Poly(Glu:Tyr)4:1 after 60 mins by ELISA
[14] = molecular target: Vascular endothelial growth factor receptor 1 (Homo sapiens, UniProt P17948); experiment: Inhibition of recombinant Flt-1 (unknown origin) using Poly(Glu:Tyr)4:1 after 60 mins by ELISA
[15] = molecular target: Vascular endothelial growth factor receptor 2 (Homo sapiens, UniProt P35968); experiment: Inhibition of KDR (unknown origin) expressed in baculovirus expression system using Poly(Glu:Tyr)4:1 after 60 mins by ELISA
[16] = molecular target: Mast/stem cell growth factor receptor Kit (Homo sapiens, UniProt P10721); experiment: Inhibition of recombinant c-Kit (unknown origin) using Poly(Glu:Tyr)4:1 after 60 mins by ELISA
[17] = molecular target: Platelet-derived growth factor receptor alpha (Homo sapiens, UniProt P16234); experiment: Inhibition of recombinant PDGFRalpha (unknown origin) using Poly(Glu:Tyr)4:1 after 60 mins by ELISA
[18] = molecular target: Platelet-derived growth factor receptor beta (Homo sapiens, UniProt P09619); experiment: Inhibition of recombinant PDGFRbeta (unknown origin) using Poly(Glu:Tyr)4:1 after 60 mins by ELISA
[19] = molecular target: Tyrosine-protein kinase ABL1 (Homo sapiens, UniProt P00519); experiment: Inhibition of recombinant ABL (unknown origin) using Poly(Glu:Tyr)4:1 after 60 mins by ELISA
Ephrin type-A receptor 2 = Ephrin type-A receptor 2 (Homo sapiens, UniProt P29317); experiment: Inhibition of recombinant EPHA2 (unknown origin) using Poly(Glu:Tyr)4:1 after 60 mins by ELISA
[20] = molecular target: Macrophage-stimulating protein receptor (Homo sapiens, UniProt Q04912); experiment: Inhibition of recombinant RON (unknown origin) using Poly(Glu:Tyr)4:1 after 60 mins by ELISA
[21] = molecular target: Insulin-like growth factor 1 receptor (Homo sapiens, UniProt P08069); experiment: Inhibition of IGF1R (unknown origin) expressed in baculovirus expression system using Poly(Glu:Tyr)4:1 after 60 mins by ELISA
[22] = molecular target: Fibroblast growth factor receptor 1 (Homo sapiens, UniProt P11362); experiment: Inhibition of FGFR1 (unknown origin) expressed in baculovirus expression system using Poly(Glu:Tyr)4:1 after 60 mins by ELISA

T1 sequence (P00533 whole entry, the tested form may be a part): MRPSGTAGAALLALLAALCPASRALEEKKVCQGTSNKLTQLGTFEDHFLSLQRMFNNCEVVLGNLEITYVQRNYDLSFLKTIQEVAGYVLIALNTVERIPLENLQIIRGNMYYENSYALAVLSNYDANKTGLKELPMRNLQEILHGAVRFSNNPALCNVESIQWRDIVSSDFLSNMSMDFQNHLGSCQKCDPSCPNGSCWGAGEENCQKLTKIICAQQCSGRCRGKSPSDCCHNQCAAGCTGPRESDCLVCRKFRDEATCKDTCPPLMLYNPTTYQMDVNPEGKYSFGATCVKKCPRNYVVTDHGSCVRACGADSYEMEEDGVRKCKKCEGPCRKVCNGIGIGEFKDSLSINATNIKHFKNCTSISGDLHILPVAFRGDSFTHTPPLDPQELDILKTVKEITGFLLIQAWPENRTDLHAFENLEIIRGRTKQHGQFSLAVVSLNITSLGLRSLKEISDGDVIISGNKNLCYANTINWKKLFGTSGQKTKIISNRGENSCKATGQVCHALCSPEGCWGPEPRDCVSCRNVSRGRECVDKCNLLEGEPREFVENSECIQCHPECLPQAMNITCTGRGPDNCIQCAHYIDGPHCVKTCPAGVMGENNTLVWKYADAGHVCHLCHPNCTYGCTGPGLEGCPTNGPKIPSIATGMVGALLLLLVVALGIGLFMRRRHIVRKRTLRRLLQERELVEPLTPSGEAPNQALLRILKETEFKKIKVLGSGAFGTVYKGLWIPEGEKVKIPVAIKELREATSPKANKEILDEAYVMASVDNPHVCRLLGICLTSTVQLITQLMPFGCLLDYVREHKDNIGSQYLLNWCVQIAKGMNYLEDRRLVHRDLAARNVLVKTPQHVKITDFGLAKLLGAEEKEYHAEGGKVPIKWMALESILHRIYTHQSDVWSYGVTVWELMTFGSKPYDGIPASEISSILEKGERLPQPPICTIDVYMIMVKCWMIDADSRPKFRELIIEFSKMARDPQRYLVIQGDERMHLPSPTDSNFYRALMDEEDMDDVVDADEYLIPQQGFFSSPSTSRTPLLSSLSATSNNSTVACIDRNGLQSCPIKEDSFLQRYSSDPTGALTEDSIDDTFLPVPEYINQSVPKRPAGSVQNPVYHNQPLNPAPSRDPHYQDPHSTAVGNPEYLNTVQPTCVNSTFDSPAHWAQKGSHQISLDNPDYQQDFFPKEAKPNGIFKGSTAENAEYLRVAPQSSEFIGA
Sequence of Epidermal growth factor receptor (Homo sapiens), P00533 [L858R,T790M] (P00533 whole entry T790M/L858R, looked up): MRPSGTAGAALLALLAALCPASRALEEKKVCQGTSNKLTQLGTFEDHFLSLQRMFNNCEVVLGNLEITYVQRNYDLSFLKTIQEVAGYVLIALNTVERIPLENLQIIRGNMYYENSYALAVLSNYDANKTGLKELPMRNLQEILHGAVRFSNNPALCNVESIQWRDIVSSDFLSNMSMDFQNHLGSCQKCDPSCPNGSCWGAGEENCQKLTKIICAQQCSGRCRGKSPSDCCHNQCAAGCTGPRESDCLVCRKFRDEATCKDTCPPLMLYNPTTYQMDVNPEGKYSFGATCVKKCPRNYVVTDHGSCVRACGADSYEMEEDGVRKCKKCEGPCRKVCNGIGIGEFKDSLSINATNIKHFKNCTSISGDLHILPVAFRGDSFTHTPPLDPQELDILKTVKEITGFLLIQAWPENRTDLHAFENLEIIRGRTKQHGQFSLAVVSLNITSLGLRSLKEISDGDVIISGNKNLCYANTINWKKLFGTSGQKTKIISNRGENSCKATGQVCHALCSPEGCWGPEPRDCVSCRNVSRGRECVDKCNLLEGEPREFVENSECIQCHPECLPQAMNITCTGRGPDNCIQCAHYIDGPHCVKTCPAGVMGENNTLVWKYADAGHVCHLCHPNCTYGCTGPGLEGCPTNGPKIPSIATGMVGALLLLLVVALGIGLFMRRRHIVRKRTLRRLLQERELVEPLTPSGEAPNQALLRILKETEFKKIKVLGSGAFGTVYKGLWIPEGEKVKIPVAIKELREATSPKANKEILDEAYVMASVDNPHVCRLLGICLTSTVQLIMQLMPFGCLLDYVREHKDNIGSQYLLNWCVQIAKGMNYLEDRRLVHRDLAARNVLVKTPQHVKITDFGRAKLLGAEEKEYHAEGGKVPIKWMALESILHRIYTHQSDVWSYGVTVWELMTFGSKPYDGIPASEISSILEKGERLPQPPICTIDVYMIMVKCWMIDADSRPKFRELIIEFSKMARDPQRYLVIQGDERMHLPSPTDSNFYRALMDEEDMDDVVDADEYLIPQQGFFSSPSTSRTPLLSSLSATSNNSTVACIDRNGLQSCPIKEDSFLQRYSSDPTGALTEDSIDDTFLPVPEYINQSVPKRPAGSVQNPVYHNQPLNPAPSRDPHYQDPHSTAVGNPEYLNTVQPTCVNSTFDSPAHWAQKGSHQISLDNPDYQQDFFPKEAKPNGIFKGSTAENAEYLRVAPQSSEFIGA
Sequence of Epidermal growth factor receptor (Homo sapiens, UniProt P00533, L858R/T790M) (P00533 25-1210 T790M/L858R limits assumed): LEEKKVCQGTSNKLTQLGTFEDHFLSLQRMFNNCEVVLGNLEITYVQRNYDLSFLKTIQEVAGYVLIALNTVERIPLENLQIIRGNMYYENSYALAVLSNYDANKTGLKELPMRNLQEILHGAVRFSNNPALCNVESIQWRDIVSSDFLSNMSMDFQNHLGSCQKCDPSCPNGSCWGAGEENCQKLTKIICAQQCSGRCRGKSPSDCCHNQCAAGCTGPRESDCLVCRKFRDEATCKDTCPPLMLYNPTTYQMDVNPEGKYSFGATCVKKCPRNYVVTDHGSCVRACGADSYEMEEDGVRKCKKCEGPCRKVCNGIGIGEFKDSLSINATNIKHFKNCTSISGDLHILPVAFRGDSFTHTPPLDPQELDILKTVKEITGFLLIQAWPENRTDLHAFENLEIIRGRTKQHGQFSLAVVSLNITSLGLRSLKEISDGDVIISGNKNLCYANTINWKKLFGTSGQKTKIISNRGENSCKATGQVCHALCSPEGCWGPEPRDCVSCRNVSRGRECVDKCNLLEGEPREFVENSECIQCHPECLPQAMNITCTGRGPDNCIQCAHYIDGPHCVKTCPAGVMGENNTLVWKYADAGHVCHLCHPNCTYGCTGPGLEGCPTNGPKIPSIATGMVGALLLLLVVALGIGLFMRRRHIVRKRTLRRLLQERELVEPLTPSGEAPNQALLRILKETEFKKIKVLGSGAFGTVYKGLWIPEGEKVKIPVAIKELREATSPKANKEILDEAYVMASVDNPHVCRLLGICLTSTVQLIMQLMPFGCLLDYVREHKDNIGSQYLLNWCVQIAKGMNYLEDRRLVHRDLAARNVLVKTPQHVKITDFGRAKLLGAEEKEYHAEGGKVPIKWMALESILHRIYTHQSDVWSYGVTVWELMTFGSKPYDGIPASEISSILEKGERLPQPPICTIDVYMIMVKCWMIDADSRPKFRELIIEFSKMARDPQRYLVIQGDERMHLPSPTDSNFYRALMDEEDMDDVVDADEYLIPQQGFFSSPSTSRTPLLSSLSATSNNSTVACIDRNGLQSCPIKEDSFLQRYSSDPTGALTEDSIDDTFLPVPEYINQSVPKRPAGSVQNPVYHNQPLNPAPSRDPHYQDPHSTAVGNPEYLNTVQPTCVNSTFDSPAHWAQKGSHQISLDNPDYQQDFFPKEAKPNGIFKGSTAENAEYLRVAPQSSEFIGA
Sequence of Tyrosine-protein kinase ABL1 (P00519 whole entry): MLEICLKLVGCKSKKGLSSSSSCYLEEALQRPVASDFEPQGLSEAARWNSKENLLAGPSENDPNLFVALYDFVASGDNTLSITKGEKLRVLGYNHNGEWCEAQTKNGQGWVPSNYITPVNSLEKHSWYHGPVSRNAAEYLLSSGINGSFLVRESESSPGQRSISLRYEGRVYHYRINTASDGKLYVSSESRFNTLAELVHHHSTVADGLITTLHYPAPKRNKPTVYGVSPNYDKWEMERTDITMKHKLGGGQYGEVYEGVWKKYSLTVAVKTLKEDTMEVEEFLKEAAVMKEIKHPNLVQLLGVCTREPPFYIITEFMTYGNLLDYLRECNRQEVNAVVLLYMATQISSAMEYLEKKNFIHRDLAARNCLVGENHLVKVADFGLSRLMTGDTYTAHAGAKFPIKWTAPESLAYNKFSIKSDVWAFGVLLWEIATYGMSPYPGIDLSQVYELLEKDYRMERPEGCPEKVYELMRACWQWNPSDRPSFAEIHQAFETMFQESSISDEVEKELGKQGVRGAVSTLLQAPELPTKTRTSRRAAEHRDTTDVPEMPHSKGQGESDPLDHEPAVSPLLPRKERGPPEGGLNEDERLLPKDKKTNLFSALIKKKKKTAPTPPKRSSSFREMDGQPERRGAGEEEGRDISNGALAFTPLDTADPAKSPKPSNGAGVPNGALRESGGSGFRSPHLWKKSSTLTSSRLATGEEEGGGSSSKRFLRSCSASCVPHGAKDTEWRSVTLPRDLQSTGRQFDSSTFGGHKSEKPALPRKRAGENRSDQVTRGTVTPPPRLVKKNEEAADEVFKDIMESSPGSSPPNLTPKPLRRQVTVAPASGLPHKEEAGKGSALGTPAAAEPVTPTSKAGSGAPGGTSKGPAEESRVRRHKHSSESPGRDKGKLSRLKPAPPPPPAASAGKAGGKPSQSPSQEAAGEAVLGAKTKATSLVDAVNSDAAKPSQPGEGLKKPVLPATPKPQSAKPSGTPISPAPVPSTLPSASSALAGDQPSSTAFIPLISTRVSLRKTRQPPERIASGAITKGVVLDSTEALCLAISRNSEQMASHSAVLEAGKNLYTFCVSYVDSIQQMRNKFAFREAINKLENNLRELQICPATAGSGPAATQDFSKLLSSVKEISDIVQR

`O=C(/C=C/CN1CCC(F)(F)CC1)Nc1cc2c(Nc3ccc(F)c(Cl)c3)ncnc2s1` was tested, and the IC50 [1] was 7 nM, the IC50 [2] was 4 nM and the IC50 (A-431) was 1200 nM. For the same compound, the IC50 (NCI-H1975) was 5160 nM, the inhibition [3] was “Dose-dependent effect” and the inhibition [4] was “Active”. The inhibition [5] was “Active”, the inhibition [6] was “Active” and the inhibition [7] was “Dose-dependent effect”. For the same compound, the inhibition [8] was “Dose-dependent effect” and the inhibition [9] was “Dose-dependent effect”.

Compound `O=C(/C=C/CN1CCOCC1)Nc1cc2c(Nc3ccc(F)c(Cl)c3)ncnc2s1` has an IC50 [1] of 3 nM, an IC50 [2] of 3 nM and an IC50 (A-431) of 2170 nM. The IC50 (NCI-H1975) was 11700 nM, the inhibition [3] was “Dose-dependent effect” and the inhibition [4] was “Active”. The inhibition [5] was “Active”, the inhibition [6] was “Active” and the inhibition [7] was “Dose-dependent effect”. For the same compound, the inhibition [8] was “Dose-dependent effect” and the inhibition [9] was “Dose-dependent effect”.

`C=CC(=O)Nc1cc2c(Nc3ccc(F)c(Cl)c3)ncnc2s1` showed an IC50 [1] of 16 nM, an IC50 [2] of 24 nM and an IC50 (A-431) of 730 nM. For the same compound, the IC50 (NCI-H1975) was 3000 nM, the inhibition [3] was “Dose-dependent effect” and the inhibition [4] was “Active”. The inhibition [5] was “Active”, the inhibition [6] was “Active” and the inhibition [7] was “Dose-dependent effect”. For the same compound, the inhibition [8] was “Dose-dependent effect”, the inhibition [9] was “Dose-dependent effect” and the inhibition [10] was “Active”. It also gave an IC50 [11] of 40 nM, an IC50 [12] of 4 nM and an IC50 [13] of 1630 nM. For the same compound, the IC50 [14] was > 10000 nM, the IC50 [15] was > 10000 nM and the IC50 [16] was > 10000 nM. For the same compound, the IC50 [17] was > 10000 nM, the IC50 [18] was > 10000 nM and the IC50 [19] was > 10000 nM. The IC50 (Ephrin type-A receptor 2) was > 10000 nM, the IC50 [20] was > 10000 nM and the IC50 [21] was > 10000 nM. For the same compound, the IC50 [22] was > 10000 nM.

`O=C(/C=C/CN1CCCCC1)Nc1cc2c(Nc3ccc(F)c(Cl)c3)ncnc2s1` gave an IC50 [1] of 9 nM, an IC50 [2] of 2 nM and an IC50 (A-431) of 130 nM. The IC50 (NCI-H1975) was 6440 nM, the inhibition [3] was “Dose-dependent effect” and the inhibition [4] was “Active”. The inhibition [5] was “Active”, the inhibition [6] was “Active” and the inhibition [7] was “Dose-dependent effect”. The inhibition [8] was “Dose-dependent effect” and the inhibition [9] was “Dose-dependent effect”.

`O=C(/C=C/CN1CC2CCC1C(=O)C2)Nc1cc2c(Nc3ccc(F)c(Cl)c3)ncnc2s1` (configuration not stated) gave an IC50 [1] of 0.9 nM, an IC50 [2] of 4 nM and an IC50 (A-431) of 1540 nM. The IC50 (NCI-H1975) was 12000 nM, the inhibition [3] was “Dose-dependent effect” and the inhibition [4] was “Active”. For the same compound, the inhibition [5] was “Active”, the inhibition [6] was “Active” and the inhibition [7] was “Dose-dependent effect”. For the same compound, the inhibition [8] was “Dose-dependent effect”, the inhibition [9] was “Dose-dependent effect” and the IC50 [11] was 30 nM. For the same compound, the IC50 [12] was 37 nM, the IC50 [13] was > 10000 nM and the IC50 [14] was > 10000 nM. For the same compound, the IC50 [15] was > 10000 nM, the IC50 [16] was > 10000 nM and the IC50 [17] was > 10000 nM. For the same compound, the IC50 [18] was > 10000 nM, the IC50 [19] was > 10000 nM and the IC50 (Ephrin type-A receptor 2) was > 10000 nM. The IC50 [20] was > 10000 nM, the IC50 [21] was > 10000 nM and the IC50 [22] was > 10000 nM.
